The numbers were not newly measured in patent US4952402A, “Controlled release powder and process for its preparation” (priority 1984, dated 1990), which cites them from elsewhere.

On to `Cn1c(=O)c2[nH]cnc2n(C)c1=O` [theophylline], for which the apparent biological half-life (in vivo) is recorded as 4-9 hours. In addition, the time of peak (rapid or immediate release) is 2 h.
